From ChEMBL document CHEMBL1149848, “Prenylated flavonoid derivatives from the bark of Erythrina addisoniae” (J Nat Prod, 2008)
The source made the active and inactive calls. The calls are words filed in the database; no cut-off is given here.

How the values were obtained:
Assay type in all cases: functional, cell-based
[1] = Cytotoxicity against rat H4IIE cells after 24 hrs by MTT assay
H4IIE [2] = assay: Cytotoxicity against rat H4IIE cells assessed as caspase-3/7 activation after 24 hrs by Apo-ONE assay
H4IIE [3] = assay: Cytotoxicity against rat H4IIE cells assessed as nuclear fragmentation after 24 hrs by Hoechst staining

Compound	IC50 [1]	Activity (H4IIE [2])	Activity (H4IIE [3])
C=C(C)C(O)Cc1cc([C@@H]2CC(=O)c3c(O)cc(O)cc3O2)cc(CC=C(C)C)c1O (some centres not stated) [ABYSSINOFLAVANONE VII]	3.5 µM	Active	Active
COc1c(CC=C(C)C)cc([C@@H]2CC(=O)c3c(O)cc(O)cc3O2)cc1CC=C(C)C	5 µM		
CC(C)=CCc1cc([C@@H]2CC(=O)c3ccc(O)cc3O2)cc(CC=C(C)C)c1O [ABYSSINONE IV]	15 µM		
O=C1C[C@@H](c2ccc(O)cc2)Oc2cc(O)cc(O)c21 [NARINGENIN]	> 100 µM		
O=C1C[C@@H](c2ccc(O)cc2)Oc2cc(O)ccc21 [LIQUIRTIGENIN]	> 100 µM		
